Measurements from patent US7605190B2, “Polymerizable compositions with acylgermanium compounds” (Ivoclar Vivadent AG, priority 2006, dated 2009).
Read-outs that look alike come from different tables or passages of the source.

Columns and labels:
[1] = Photoinitiator activity by photo-DSC
Protocol: The activity of the photoinitiators was measured by means of photo-DSC (Differential Scanning Calorimetry) measurements on a DSC-50 device from Shimadzu, wherein the samples were irradiated alternatively with different dental lamps (Astalis 3: halogen lamp, wavelength range 400-500 nm, intensity 530 mW/cm^2; Bluephase C8: LED, wavelength range 430-490 nm, intensity 1100 mW/cm^2; Ivoclar Vivadent AG). The activity is characterized by the time of peak maximum (tmax), the polymerization rate (RP) which corresponds to the peak height, and the double bond conversion (DBC). The respective photoinitiators were dissolved in a resin mixture of D3MA:UDMA:bis-GMA=1:1:1 and then measured in an aluminum crucible by means of DSC. […]

[2] = Absorption maximum (UV-VIS); assay type: physicochemical; conditions: own acylgermanium photoinitiators
[3] = known comparison photoinitiators; cited from earlier work
[4] = Astralis 3 lamp (400-500 nm), 0.022 mmol PI per gram of resin
[5] = Bluephase C8 lamp (430-490 nm), 0.022 mmol PI per gram of resin

Structure (SMILES) | reactivity compared with camphorquinone/amine ([1]; 15-fold dilution of the initiator) | DBC [1, 4] | Rp × 10^−3 [1, 4] | tmax [1, 4] | DBC [1, 5] | Rp × 10^−3 [1, 5] | tmax [1, 5] | curing time compared with campherquinone/amine ([1]; D3MA:UDMA:bis-GMA=1:1:1) | DBC ([1]; PI concentration 0.0014 mmol/g) | Rp × 10^−3 ([1]; PI concentration 0.0014 mmol/g) | tmax ([1]; PI concentration 0.0014 mmol/g) | DBC ([1]; PI concentration 0.0055 mmol/g) | Rp × 10^−3 ([1]; PI concentration 0.0055 mmol/g) | tmax ([1]; PI concentration 0.0055 mmol/g) | polymerization rate (Rp) relative to camphorquinone in combination with an amine accelerator ([1]; same formulation, D3MA:UDMA:bis-GMA=1:1:1) | absorption maximum [2] | absorption maximum [3]
C[CH2][Ge]([CH2]C)([C](=O)c1ccccc1)[C](=O)c1ccccc1 [Bis-AG, bisbenzoyldiethylgermanium] | comparable with camphorquinone/amine | 84% | 99.2 mol/(l × s) | 7.8 s | 72% | 98.5 mol/(l × s) | 7.8 s | halved | 56% | 61.0 mol/(l × s) | 12 s | 66% | 85.6 mol/(l × s) | 9 s | almost double | 418.5 nm | –
O=[C](c1ccccc1)[Ge]1([C](=O)c2ccccc2)[CH2]CCC[CH2]1 [Example 9, 1,1-bisbenzoyl-germinane] | – | – | – | – | – | – | – | – | – | – | – | – | – | – | – | 418.1 nm | –
Cc1cc(C)c(C(=O)P(=O)(C(=O)c2c(C)cc(C)cc2C)c2ccccc2)c(C)c1 [Irg 819, bis(2,4,6-trimethylbenzoyl)phenylphosphine oxide, reference compound] | – | 59% | 67.5 mol/(l × s) | 11 s | 45% | 43.5 mol/(l × s) | 17 s | – | 42% | 30.4 mol/(l × s) | 23 s | 48% | 48.3 mol/(l × s) | 14 s | – | – | 397 nm
[CH3][Ge]([CH3])([CH3])[C](=O)c1ccccc1 [Mono-AG, benzoyltrimethylgermanium] | – | 56% | 51.0 mol/(l × s) | 16 s | 49% | 48.3 mol/(l × s) | 16 s | – | 30% | 16.4 mol/(l × s) | 52 s | 48% | 36.2 mol/(l × s) | 24 s | – | 411.5 nm | –
CC12CCC(C(=O)C1=O)C2(C)C (centres unmarked) [camphorquinone] | – | – | – | – | – | – | – | – | – | – | – | – | – | – | – | – | 468 nm
